# From patent US20260183411A1, “TARGETING SORTILIN” (priority 2024, published 2026)
# Bridges are numbered along the chain shown (N, C = ends). Where no end group is shown, it is not given here. [ ]: non-standard residue; d: D form. conjugation handle = not defined here; tBuAla = CC(C)(C)C[C@H](N)C(=O)O; Tle = CC(C)(C)[C@H](N)C(=O)O; Nle = CCCC[C@H](N)C(=O)O
# T1: SORT1 (Sortilin), Acrobiosystems SON-H52H5 (human, UniProt Q99523 78-755, biotinylated 1:1 with NHS-PEG4 Biotin when immobilised in the protein-loaded GCI format)
# T1 construct: Used in FP, GCI and the peptide microarray; also called SORT1-Ag; SORT1 antigen
# T1 sequence (looked up): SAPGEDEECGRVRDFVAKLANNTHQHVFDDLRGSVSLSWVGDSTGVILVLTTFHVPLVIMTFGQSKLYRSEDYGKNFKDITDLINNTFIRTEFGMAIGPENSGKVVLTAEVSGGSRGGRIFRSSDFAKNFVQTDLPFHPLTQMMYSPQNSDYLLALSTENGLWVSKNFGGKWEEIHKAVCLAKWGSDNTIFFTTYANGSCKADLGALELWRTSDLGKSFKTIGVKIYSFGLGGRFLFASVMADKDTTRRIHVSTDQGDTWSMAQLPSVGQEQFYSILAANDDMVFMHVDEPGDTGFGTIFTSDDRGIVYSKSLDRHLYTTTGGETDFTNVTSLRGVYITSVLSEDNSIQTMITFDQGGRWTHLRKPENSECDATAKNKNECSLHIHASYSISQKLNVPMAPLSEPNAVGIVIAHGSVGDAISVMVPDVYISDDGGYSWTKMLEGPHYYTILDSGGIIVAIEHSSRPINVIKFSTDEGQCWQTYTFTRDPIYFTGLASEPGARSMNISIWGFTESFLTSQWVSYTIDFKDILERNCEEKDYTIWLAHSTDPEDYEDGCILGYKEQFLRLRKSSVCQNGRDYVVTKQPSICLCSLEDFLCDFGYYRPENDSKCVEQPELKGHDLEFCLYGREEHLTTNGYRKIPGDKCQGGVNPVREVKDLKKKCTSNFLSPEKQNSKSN
# T2: Human SORT1 (78-755)-His (human, UniProt Q99523 78-755)
# T2 construct: range 78-755; Amine-coupled to CM5 chip for SPR; Two suppliers are named (Acrobiosystems, GenScript)
# T2 sequence (looked up): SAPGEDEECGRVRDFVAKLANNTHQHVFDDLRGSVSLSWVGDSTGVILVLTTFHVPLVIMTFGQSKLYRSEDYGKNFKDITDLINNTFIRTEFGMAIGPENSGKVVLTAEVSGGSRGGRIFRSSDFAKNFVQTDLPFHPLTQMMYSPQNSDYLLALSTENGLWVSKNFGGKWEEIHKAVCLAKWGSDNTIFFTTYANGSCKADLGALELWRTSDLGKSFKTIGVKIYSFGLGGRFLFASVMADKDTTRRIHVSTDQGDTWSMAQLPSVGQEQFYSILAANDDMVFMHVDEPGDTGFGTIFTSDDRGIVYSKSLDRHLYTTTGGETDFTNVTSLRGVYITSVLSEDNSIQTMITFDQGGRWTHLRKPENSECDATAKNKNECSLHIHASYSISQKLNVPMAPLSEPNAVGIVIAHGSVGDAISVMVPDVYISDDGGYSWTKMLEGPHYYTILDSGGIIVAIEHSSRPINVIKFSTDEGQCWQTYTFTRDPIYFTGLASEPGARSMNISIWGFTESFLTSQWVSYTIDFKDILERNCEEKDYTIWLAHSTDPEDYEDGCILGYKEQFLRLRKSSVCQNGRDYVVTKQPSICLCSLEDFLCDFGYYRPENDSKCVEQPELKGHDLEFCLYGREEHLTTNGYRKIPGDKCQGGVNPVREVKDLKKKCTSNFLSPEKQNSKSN
# T3: rat SORT1 (76-752)-His (rat, UniProt O54861 76-752)
# T3 construct: range 76-752; Amine-coupled to CM5 chip for SPR
# T3 sequence (looked up): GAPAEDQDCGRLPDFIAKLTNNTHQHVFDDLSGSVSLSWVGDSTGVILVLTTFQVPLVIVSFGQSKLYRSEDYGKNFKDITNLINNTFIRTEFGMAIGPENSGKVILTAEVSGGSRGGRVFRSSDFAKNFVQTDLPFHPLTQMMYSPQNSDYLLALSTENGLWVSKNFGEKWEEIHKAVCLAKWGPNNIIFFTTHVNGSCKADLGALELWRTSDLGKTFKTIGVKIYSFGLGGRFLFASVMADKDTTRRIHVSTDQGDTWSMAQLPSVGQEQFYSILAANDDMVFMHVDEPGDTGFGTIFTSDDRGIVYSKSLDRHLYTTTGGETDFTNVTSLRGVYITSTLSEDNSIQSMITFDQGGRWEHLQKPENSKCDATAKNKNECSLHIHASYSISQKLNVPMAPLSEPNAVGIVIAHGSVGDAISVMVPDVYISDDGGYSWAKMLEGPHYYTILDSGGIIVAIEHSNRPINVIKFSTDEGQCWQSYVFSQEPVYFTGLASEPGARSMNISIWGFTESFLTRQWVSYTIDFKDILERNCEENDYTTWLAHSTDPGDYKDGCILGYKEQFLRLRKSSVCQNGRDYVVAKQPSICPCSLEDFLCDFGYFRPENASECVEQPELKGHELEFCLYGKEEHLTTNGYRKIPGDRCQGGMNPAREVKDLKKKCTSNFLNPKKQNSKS
# T4: cyno SORT1 (76-753)-His (cyno, UniProt A0A2K5VHG2 74-751)
# T4 construct: range 76-753; Amine-coupled to CM5 chip for SPR
# T4 sequence: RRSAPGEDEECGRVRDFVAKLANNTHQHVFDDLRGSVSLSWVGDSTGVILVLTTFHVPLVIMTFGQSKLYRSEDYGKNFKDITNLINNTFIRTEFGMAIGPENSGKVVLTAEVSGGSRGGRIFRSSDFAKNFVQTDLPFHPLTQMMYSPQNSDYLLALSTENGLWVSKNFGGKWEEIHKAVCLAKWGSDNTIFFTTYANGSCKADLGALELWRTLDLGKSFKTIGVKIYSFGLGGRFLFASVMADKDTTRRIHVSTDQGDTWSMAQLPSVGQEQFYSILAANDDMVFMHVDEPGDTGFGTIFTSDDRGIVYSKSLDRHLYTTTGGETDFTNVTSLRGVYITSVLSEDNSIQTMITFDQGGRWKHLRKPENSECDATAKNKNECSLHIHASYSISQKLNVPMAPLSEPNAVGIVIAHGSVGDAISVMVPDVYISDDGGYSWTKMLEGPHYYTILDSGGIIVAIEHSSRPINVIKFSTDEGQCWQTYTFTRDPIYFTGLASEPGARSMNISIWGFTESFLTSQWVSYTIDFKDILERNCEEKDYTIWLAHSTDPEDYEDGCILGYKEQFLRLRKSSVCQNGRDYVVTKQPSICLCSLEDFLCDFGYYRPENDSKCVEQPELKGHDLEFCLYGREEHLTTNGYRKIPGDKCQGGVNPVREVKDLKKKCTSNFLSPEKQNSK
# What was measured:
# GAPDH mRNA [1] = test: GAPDH mRNA knockdown in differentiated Neuro-2a cells (RT-qPCR); assay type: cell-based
# Method: (§1) These GAPDH siRNA-peptide conjugates were then evaluated in HEK293 cells and the neuronal cell line, neuro2A.
# GAPDH mRNA [2] = test: GAPDH mRNA knockdown in HEK293 cells (RT-qPCR); assay type: cell-based
# Method: as §1
# [3] = target: T1, SORT1 (Sortilin), Acrobiosystems …; test: fluorescence polarization, direct titration of the FAM-labelled peptide with SORT1
# Method: A 12-point, two-fold dilution series of target protein was prepared in a V-bottom 96-well plate for a total volume of 25 μL.
# A 10× working solution of FAM-labeled peptides was prepared in the FP buffer (1×PBS, pH 7.4, 0.1% Tween-20). An aliquot of 2.5 μL of the 10× working solution of the FAM-labeled peptides was then added to 22.5 μL of the SORT1 dilution series and pipetted to mix in a V-bottom 96-well plate. A negative control with no target protein was also prepared to assess baseline polarization of the FAM-labeled peptides. […] The data was then fitted to a One Site-Specific Binding curve in GraphPad to calculate the KD.
# Human SORT1 (78-755)-His = target: T2, Human SORT1 (78-755)-His; test: SPR (Biacore 8K), SORT1 on CM5 chip, unconjugated peptide with conjugation handles as analyte, 1:1 model
# Method: (§2) SPR analysis was performed on Series S CM5 chips (Cytiva) using a Biacore 8K instrument (Cytiva). Sensorgrams were double-referenced by subtracting the response on both a reference flow cell and a blank sample. Human SORT1 (78-755)-His (Acrobiosystems), human SORT1 (78-755)-His(GenScript), mouse SORT1 (76-753)-His (R&D Systems), rat SORT1 (76-752)-His (GenScript), and cyno SORT1 (76-753)-His (GenScript) were diluted to 20-60 μg/mL in 10 mM sodium acetate pH 4.5 buffer and immobilized onto Series S CM5 chips using amine coupling at a flow rate of 10 μL/min for 45-100 s.
# (§3) Ten start-up cycles and a blank cycle preceded each analysis run. The runs were performed by sequential injections of analyte (0-20 nM, 3-fold serial dilutions) with a 90 s association and 900 s dissociation at a flow rate of 30 μL/min, followed by two regeneration cycles with 2 M MgCl2 for 90 s at a flow rate of 10 μL/min. […] Five start-up cycles and a blank cycle preceded each analysis run. The runs were performed by sequential injections of analyte (0-25 nM) with a 150 seconds (s) association and 300 s dissociation at a flow rate of 30 μL/min, followed by a regeneration with 2 M MgCl₂ for 200 s at a flow rate of 10 μL/min. The kinetic rate constants (kₐ and kd) and the equilibrium binding constant (Kd) were calculated using a 1:1 kinetic binding model on the Biacore Insight Evaluation Software (Cytiva).
# (§4) SPR analysis was performed on Series S CM5 chips (Cytiva) using a Biacore 8K instrument (Cytiva). Sensorgrams were double-referenced by subtracting the response on both a reference flow cell and a blank sample. The SPR analysis was conducted using four different SORT1 species: Human SORT1, Mouse SORT1, Rat SORT1, and Cyno SORT1. The samples were prepared according to the general procedure described above herein. The kinetic rate constants (ka and […]) and the equilibrium binding constant (Kd) were calculated using a 1:1 kinetic binding model on the Biacore Insight Evaluation Software (Cytiva).
# rat SORT1 (76-752)-His = target: T3, rat SORT1 (76-752)-His; test: as above
# Method: as §2, §3, §4
# cyno SORT1 (76-753)-His = target: T4, cyno SORT1 (76-753)-His; test: as above
# Method: as §2, §3, §4
molecule,measurement,setting,value
Ac-C(bAla)(Sar)(Sar)(Sar)(Sar)APRWDAPLRDPALRQ(B13)(G48) (CXXXXXAPRWDAPLRDPALRQXX; N-methyl; non-natural residues; cyclised or stapled) [Peptide 2-GAPDH6-SPDP],GAPDH mRNA % knockdown compared to untreated cells,GAPDH mRNA [1]; Neuro2a + CQ,0%
same,GAPDH mRNA % knockdown compared to untreated cells,GAPDH mRNA [1]; Neuro2a − CQ,3%
same,GAPDH mRNA % knockdown compared to untreated cells,GAPDH mRNA [2]; HEK293 + CQ,80%
same,GAPDH mRNA % knockdown compared to untreated cells,GAPDH mRNA [2]; HEK293 − CQ (chloroquine),0%
{FAM}-QRLARLPRDLLAWPPAD-OH (also called negative control peptide) [PRGN_scr],binding result,[3],no binding
"RWCENK(conjugation handle)R[Nle]FTCRQ[Tle][tBuAla] (disulfide 3-11 (inferred); reading uncertain; also: K6 conjugation handle not given here, printed as RWCENKR(Nle)FTCRQ(B13)(F02)) [SORT1 peptide 3 (w/conjugation handles), unconjugated]",Kd,Human SORT1 (78-755)-His,0.168 nM
same,Kd,rat SORT1 (76-752)-His,1.16 nM
same,Kd,cyno SORT1 (76-753)-His,0.191 nM
